Reference: patent US20080044484A1, “Use of polymeric nanoparticles for vaccine delivery” (THE REGENTS OF THE UNIVERSITY OF CALIFORNIA, priority 2004, published 2008)

Assays:
[1] = system: T2 cells; experiment: IFNγ release by CTL (ELISA) after incubation with peptide-loaded T2 cells; assay type: cell-based, human; settings: CTL elicited with the corresponding HER2/neu peptide, 20 h, 10^5 CTL/well
Description: In interferon gamma-release assays, 10^5 HER2/neu-specific CTL were co-incubated with 10^5 peptide-loaded T2 cells for 20 hours at 37° C. The concentrations of human interferon gamma in co-cultured supernatants were then determined by ELISA.

[2] = system: T2 cells; experiment: 51Cr-release assay using T2 cells pulsed with HER2/neu-derived peptides as targets for CTL; settings: T2 pulsed with the peptide; percentage of specific lysis
Description: To probe class I presentation of cells loaded with the fusion peptides and their counterpart minimal peptides CTL recognizing the HER2/neu-derived peptides were generated. In vitro peripheral blood mononuclear cells (PBMCs) were immunized from healthy donors with these peptides in the presence of interleukin 2 and interleukin 7 using the following technique:
The next day, 12 units/ml IL-2 (Chiron) and 30 units/ml IL-7 (R & D Systems) were added to the cultures. Lymphocytes were re-stimulated weekly with peptide-pulsed autologous adherent cells as follows: First, autologous PBMC were incubated with HER2/neu peptide (10 μg/ml) for 3 h at 37° C. Nonadherent cells were then removed by a gentle wash and the adherent cells were incubated with fresh medium containing the HER2/neu peptide (10 μg/ml) for an additional 3 h at 37° C.
The induction of CTL in human PBMC was monitored in a conventional ^51Cr-labeling release assay. Briefly, peptide-pulsed TAP^−/HLA-A2.1^+ human T2 cells were incubated with 10 μg of HER2/neu peptides or the MART-1 control peptide for 90 min during labeling with ^51Cr. After washing, the target cells were added to serially diluted effectors in 96-well microplates. After a 6-h incubation at 37° C., supernatants were harvested and counted in a gamma counter. Results are expressed as the percentage of specific lysis and determined as follows: [(experimental cpm−spontaneous cpm)/(maximum cpm−spontaneous cpm)]×100.

[3] = system: breast cancer cells MDA-MB-231; experiment: IFNγ release by CTL (ELISA) after incubation with peptide-loaded MDA-MB-231 cells; assay type: cell-based, human; settings: CTL elicited with the corresponding HER2/neu peptide, 20 h, 10^5 CTL/well
Description: In interferon gamma release assays, 10^5 HER2/neu-specific CTL were co-incubated with 10^5 peptide-loaded tumor cells for 20 hours at 37° C. The concentration of human interferon gamma in co-cultured supernatants was then determined by ELISA.

With “CLTSTVQLV (listed as Homo sapiens) [HER2/neu789-797]” the “Release of IFNγ by CTL, T2 cells loaded with the peptide” value (“Release of IFNγ by CTL, T2 cells loaded” for short) ([1]; Day 1 after peptide loading) was 2924 pg/mL, the “Release of IFNγ by CTL, T2 cells loaded” value ([1]; Day 3 after peptide loading) was 317 pg/mL and the “Release of IFNγ by CTL, T2 cells loaded” value ([1]; Day 5 after peptide loading) was 116 pg/mL. For the same sequence, the “Release of IFNγ by CTL, T2 cells loaded” value ([1]; Day 8 after peptide loading) was 91 pg/mL, the “51Cr-release, E:T ratio 1.5:1” value [2] was 9% and the “51Cr-release, E:T ratio 3.1” value [2] was 22%. The “51Cr-release, E:T ratio 6:1” value [2] was 31%, the “51Cr-release, E:T ratio 12:1” value [2] was 52% and the “51Cr-release, E:T ratio 25:1” value [2] was 62%. The “51Cr-release, E:T ratio 50:1” value [2] was 83%.

“CLTSTVQLV MRYMILGLLALAAVCSA (CLTSTVQLVMRYMILGLLALAAVCSA) [HER789-797-ES]” was tested, and the “Release of IFNγ by CTL, T2 cells loaded” value ([1]; Day 1 after peptide loading) was 58 pg/mL, the “Release of IFNγ by CTL, T2 cells loaded” value ([1]; Day 3 after peptide loading) was 78 pg/mL and the “Release of IFNγ by CTL, T2 cells loaded” value ([1]; Day 5 after peptide loading) was 69 pg/mL. For the same sequence, the “Release of IFNγ by CTL, T2 cells loaded” value ([1]; Day 8 after peptide loading) was 98 pg/mL.

For “CLTSTVQLV MTNKCLLQIALLLCFSTTA (CLTSTVQLVMTNKCLLQIALLLCFSTTA) [HER789-797-IS]”, the “Release of IFNγ by CTL, T2 cells loaded” value ([1]; Day 1 after peptide loading) was 69 pg/mL, the “Release of IFNγ by CTL, T2 cells loaded” value ([1]; Day 3 after peptide loading) was 78 pg/mL and the “Release of IFNγ by CTL, T2 cells loaded” value ([1]; Day 5 after peptide loading) was 87 pg/mL. For the same sequence, the “Release of IFNγ by CTL, T2 cells loaded” value ([1]; Day 8 after peptide loading) was 59 pg/mL.

“HLYQGCQVV (listed as Homo sapiens) [HER2/neu48-56]” was tested, and the “Release of IFNγ by CTL, T2 cells loaded” value ([1]; Day 1 after peptide loading) was 2280 pg/mL, the “Release of IFNγ by CTL, T2 cells loaded” value ([1]; Day 3 after peptide loading) was 488 pg/mL and the “Release of IFNγ by CTL, T2 cells loaded” value ([1]; Day 5 after peptide loading) was 134 pg/mL. For the same sequence, the “Release of IFNγ by CTL, T2 cells loaded” value ([1]; Day 8 after peptide loading) was 177 pg/mL, the “51Cr-release, E:T ratio 1.5:1” value [2] was 8% and the “51Cr-release, E:T ratio 3.1” value [2] was 19%. For the same sequence, the “51Cr-release, E:T ratio 6:1” value [2] was 33%, the “51Cr-release, E:T ratio 12:1” value [2] was 41% and the “51Cr-release, E:T ratio 25:1” value [2] was 53%. The “51Cr-release, E:T ratio 50:1” value [2] was 88%.

“HLYQGCQVV MRYMILGLLALAAVCSA (HLYQGCQVVMRYMILGLLALAAVCSA) [HER48-56-ES]” was tested, and the “Release of IFNγ by CTL, T2 cells loaded” value ([1]; Day 1 after peptide loading) was 418 pg/mL, the “Release of IFNγ by CTL, T2 cells loaded” value ([1]; Day 3 after peptide loading) was 218 pg/mL and the “Release of IFNγ by CTL, T2 cells loaded” value ([1]; Day 5 after peptide loading) was 99 pg/mL. The “Release of IFNγ by CTL, T2 cells loaded” value ([1]; Day 8 after peptide loading) was 101 pg/mL.

With “HLYQGCQVV MTNKCLLQIALLLCFSTTALS (HLYQGCQVVMTNKCLLQIALLLCFSTTALS) [HER48-56-IS]” the “Release of IFNγ by CTL, T2 cells loaded” value ([1]; Day 1 after peptide loading) was 288 pg/mL, the “Release of IFNγ by CTL, T2 cells loaded” value ([1]; Day 3 after peptide loading) was 148 pg/mL and the “Release of IFNγ by CTL, T2 cells loaded” value ([1]; Day 5 after peptide loading) was 155 pg/mL. For the same sequence, the “Release of IFNγ by CTL, T2 cells loaded” value ([1]; Day 8 after peptide loading) was 121 pg/mL.

“IISAVVGIL (listed as Homo sapiens) [HER2/neu654-662, reference compound]” was tested, and the “Release of IFNγ by CTL, MDA-MB-231 cells loaded with the peptide” value ([3]; Day 1 after peptide loading) was 2826 pg/mL, the “Release of IFNγ by CTL, MDA-MB-231 cells loaded with the peptide” value ([3]; Day 3 after peptide loading) was 438 pg/mL and the “Release of IFNγ by CTL, MDA-MB-231 cells loaded with the peptide” value ([3]; Day 5 after peptide loading) was 131 pg/mL. The “Release of IFNγ by CTL, MDA-MB-231 cells loaded with the peptide” value ([3]; Day 8 after peptide loading) was 147 pg/mL, the “Release of IFNγ by CTL, T2 cells loaded” value ([1]; Day 1 after peptide loading) was 2827 pg/mL and the “Release of IFNγ by CTL, T2 cells loaded” value ([1]; Day 3 after peptide loading) was 429 pg/mL. The “Release of IFNγ by CTL, T2 cells loaded” value ([1]; Day 5 after peptide loading) was 121 pg/mL, the “Release of IFNγ by CTL, T2 cells loaded” value ([1]; Day 8 after peptide loading) was 167 pg/mL and the “51Cr-release, E:T ratio 1.5:1” value [2] was 13%. For the same sequence, the “51Cr-release, E:T ratio 3.1” value [2] was 26%, the “51Cr-release, E:T ratio 6:1” value [2] was 38% and the “51Cr-release, E:T ratio 12:1” value [2] was 59%. The “51Cr-release, E:T ratio 25:1” value [2] was 71% and the “51Cr-release, E:T ratio 50:1” value [2] was 91%.

“IISAVVGIL MRYMILGLLALAAVCSA (IISAVVGILMRYMILGLLALAAVCSA) [HER654-662-ES]” was tested, and the “Release of IFNγ by CTL, MDA-MB-231 cells loaded with the peptide” value ([3]; Day 1 after peptide loading) was 188 pg/mL, the “Release of IFNγ by CTL, MDA-MB-231 cells loaded with the peptide” value ([3]; Day 3 after peptide loading) was 138 pg/mL and the “Release of IFNγ by CTL, MDA-MB-231 cells loaded with the peptide” value ([3]; Day 5 after peptide loading) was 135 pg/mL. For the same sequence, the “Release of IFNγ by CTL, MDA-MB-231 cells loaded with the peptide” value ([3]; Day 8 after peptide loading) was 93 pg/mL, the “Release of IFNγ by CTL, T2 cells loaded” value ([1]; Day 1 after peptide loading) was 144 pg/mL and the “Release of IFNγ by CTL, T2 cells loaded” value ([1]; Day 3 after peptide loading) was 124 pg/mL. The “Release of IFNγ by CTL, T2 cells loaded” value ([1]; Day 5 after peptide loading) was 137 pg/mL and the “Release of IFNγ by CTL, T2 cells loaded” value ([1]; Day 8 after peptide loading) was 83 pg/mL.

In the case of “IISAVVGIL MTNKCLLQIALLLCFSTTALS (IISAVVGILMTNKCLLQIALLLCFSTTALS) [HER654-662-IS]”, the “Release of IFNγ by CTL, MDA-MB-231 cells loaded with the peptide” value ([3]; Day 1 after peptide loading) is reported as 144 pg/mL, the “Release of IFNγ by CTL, MDA-MB-231 cells loaded with the peptide” value ([3]; Day 3 after peptide loading) is reported as 102 pg/mL and the “Release of IFNγ by CTL, MDA-MB-231 cells loaded with the peptide” value ([3]; Day 5 after peptide loading) is reported as 132 pg/mL. For the same sequence, the “Release of IFNγ by CTL, MDA-MB-231 cells loaded with the peptide” value ([3]; Day 8 after peptide loading) was 86 pg/mL, the “Release of IFNγ by CTL, T2 cells loaded” value ([1]; Day 1 after peptide loading) was 111 pg/mL and the “Release of IFNγ by CTL, T2 cells loaded” value ([1]; Day 3 after peptide loading) was 99 pg/mL. For the same sequence, the “Release of IFNγ by CTL, T2 cells loaded” value ([1]; Day 5 after peptide loading) was 121 pg/mL and the “Release of IFNγ by CTL, T2 cells loaded” value ([1]; Day 8 after peptide loading) was 76 pg/mL.
